Results taken from publication PMC10584170, “Machine learning-based phenotypic imaging to characterise the targetable biology of Plasmodium falciparum male gametocytes for the development of transmission-blocking antimalarials” (PLOS Pathogens, 2023).
pIC50: −log10 of the molar value. Read-outs that look alike come from different tables or passages of the source.

How the values were obtained:
[1] = system: P. falciparum gametocytes; design: method as in Almela et al 2015; settings: ref Almela et al 2015; read-out: Pf Gametocyte viability (ATP) GC-ATP IC50; cited from earlier work
HepG2 cells [2] = assay: HepG2 cytotoxicity counter-screen; settings: for Mean TOX: mean of the HepG2 TOX50 values
[3] = system: P. falciparum male gametocytes; assay: P. falciparum Dual Gamete Formation Assay (PfDGFA), male readout (exflagellation); type: cell-based, Plasmodium falciparum NF54; settings: for pIC50: this study, read-out: Pf DGFA IC50 MALE
Method in brief: (§1)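 Male and female gamete formation were quantified by microscopy image analysis following 24 h incubation of mature NF54 gametocytes with compound and activation at 28°C with xanthurenic acid.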

HepG2 cells [4] = settings: cited from earlier work
[5] = system: P. falciparum female gametocytes; assay: P. falciparum Dual Gamete Formation Assay (PfDGFA), female readout (Pfs25-positive female gametes); type: cell-based, Plasmodium falciparum NF54; settings: for pIC50: this study, read-out: Pf DGFA IC50 FEM
Method in brief: as §1

[6] = system: P. falciparum female gametocytes; design: method as in Miguel-Blanco et al 2017; settings: ref Miguel-Blanco et al 2017; read-out: Pf female gametogenesis FGAA IC50; cited from earlier work
[7] = system: P. falciparum female gametocytes; assay: P. falciparum Female Gametocyte Activation Assay (PfFGAA); type: cell-based, Plasmodium falciparum; settings: Mean TOX HepG2 over FGAA IC50; GREEN = >10-fold; RED = <10-fold
Excerpt: (§2) Fig 1 The activity of TCAMS compound identified in the Pf DGFA screen. (A) 85 molecules were confirmed active in the Pf DGFA. 58 were previously identified in one or more transmission-blocking screens. […] No molecule was identified with >4.7-fold greater activity against female gametocytes. Abbreviations (IC50 = concentration giving 50% inhibition, PbODA = P. berghei Ookinete Development Assay, PfDGFA = P. falciparum Dual Gamete Formation Assay, PfFGAA = P. falciparum Female Gametocyte Activation Assay, PfGCT = P. falciparum Gametocyte Viability ATP Assay).

[8] = system: P. falciparum gametocytes; assay: P. falciparum Gametocyte Viability ATP Assay (PfGCT); type: cell-based, Plasmodium falciparum; settings: Mean TOX HepG2 over GC-ATP IC50; GREEN = >10-fold; RED = <10-fold
Excerpt: as §2

[9] = system: P. berghei ookinete development; assay: P. berghei Ookinete Development Assay (PbODA); type: cell-based, Plasmodium berghei; settings: Mean TOX HepG2 over Pb ODA value; GREEN = >10-fold; RED = <10-fold
Excerpt: as §2

SMILES	pIC50 [1]	Mean TOX (HepG2 cells [2]) [µM]	Cytotox ratio Pf Male [3]	pIC50 [3]	FGAA TOX50 HepG2 (HepG2 cells [4]) [µM]	GC-ATP TOX50 HepG2 (HepG2 cells [4]) [µM]	Cytotox ratio Pf Female [5]	pIC50 [5]	pIC50 [6]	Cytotox ratio Pf FGAA [7]	Cytotox ratio Pf GC-ATP [8]	DGFA Tox50 HepG2 (HepG2 cells [2]; HepG2 value reported with the DGFA screen) [µM]	ODA TOX50 HepG2 (HepG2 cells [4]) [µM]	Cytotox ratio Pb Ookinete [9]
Br.c1cc(Nc2nc(-c3ccc(-c4csc(Nc5ccncc5)n4)cc3)cs2)ccn1 [TC35]	6.59	8.03	26.8	6.52	2.26	17.3	26.8	6.52	7.52	267.7	30.9			
C=CCN(C(=O)c1ccc(Cl)c([N+](=O)[O-])c1)c1nc(-c2ccccc2)cs1 [TC38]	6.96	50.86	127.1	6.40	100	25	164.1	6.51	6.89	391.2	462.3			
c1ccc2sc(Sc3ncnc4sccc34)nc2c1 [TC45]	6.30	75.00	250.0	6.52	100	25	258.6	6.54	6.85	535.7	150.0	100		
O=c1c(Br)ccccc1Br [TC48]	6.68	11.45	76.3	6.82		12.6	104.1	6.96			54.5		14.791	10834.6
Cc1sc2ncnc(Sc3nnc(N)s3)c2c1C [TC60]	6.52	42.45	30.1	5.85	36.31	25	57.4	6.13	6.11	55.1	141.5			
